Measurements: patent publication US20210087191A1, “SUBSTITUTED 3-ISOBUTYL-9,10-DIMETHOXY-1,3,4,6,7,11B-HEXAHYDRO-2H-PYRIDO[2,1-a]ISOQUINOLIN-2-OL COMPOUNDS, THEIR [sequence], AND USE THEREOF” (DISPERSOL TECHNOLOGIES, LLC, priority 2020, published 2021)
Values after ≈ are worked out from the molar mass of the structure shown. Where two headings read alike, the source gives them in different places.

Columns and labels:
[1] = cited from earlier work
[2] = compared to the other three isomers; cited from earlier work
[3] = in vivo; cited from earlier work
[4] = Metabolic stability in human liver microsomes (LM), LC-MS/MS (first table); type: in vitro ADME; conditions: for microsomal CLint: Table 1, read-out: Human LM CLint (μL/min/mg protein); for half-life: Table 1, read-out: Human LM t1/2
Procedure: (§1) Metabolism of compound(s) to release (+)-α-DTHBZ was determined by the half-life (t1/2) and intrinsic clearance (CIint) in human plasma (PS) and liver microsomes (LM) using tandem mass spectrometry (LC-MS/MS).

[5] = Stability in human plasma (PS), LC-MS/MS; type: in vitro ADME; conditions: for half-life: read-out: Human PS t1/2
Procedure: as §1

[6] = LM stability assay, human (second table); type: in vitro ADME; conditions: human liver microsomes, Table 2; for microsomal CLint: read-out: LM stability assay Human Clint (μL/min/mg protein); for half-life: read-out: LM stability assay Human t1/2
Procedure: Metabolism of compound(s) to release (+)-α-DTHBZ was determined by the half-life (t1/2) and intrinsic clearance (CIint) in human liver microsomes (LM) using tandem mass spectrometry (LC-MS/MS).

[7] = tested on: human cryopreserved hepatocytes; test: Heps. stability assay, human cryopreserved hepatocytes; type: in vitro ADME
Procedure: (§2) Metabolism of compound(s) to release (+)-α-DTHBZ was determined by the half-life (t1/2) and intrinsic clearance (CIint) in human cryopreserved hepatocytes using tandem mass spectrometry (LC-MS/MS).

[8] = Kinetic solubility in PBS buffer; type: physicochemical; conditions: aqueous buffer, kinetic from dmso stock, compound suspended at 300 μM, 25° C.
Procedure: Kinetic solubility was determined by suspending compound at 300 μM at pH 1.2 and 7.4 in PBS buffer. The suspension was equilibrated by shaking at 25° C. at 1100 RPM for 2 hours and then pH was measured following filtration. The filtrate was then diluted by an appropriate factor (e.g. 100-fold). Quantitation was done by LC-MS/MS with reference to a standard solution.

[9] = Permeability in Caco-2 cell monolayer; type: in vitro ADME; conditions: human; for efflux ratio: Caco-2; for Papp A→B: Caco-2, apical to basolateral; for Papp B→A: Caco-2, basolateral to apical
Procedure: The intestinal permeability of compound(s) was evaluated in Caco-2 cells by assessing transport across the cell monolayer in the apical to basolateral (A-B) direction. Active efflux was also assessed by measuring transport in the basolateral to apical (BA) direction which enables evaluation of the efflux ratio. Analysis of transport is quantified by tandem mass spectrometry (LC-MS/MS).

[10] = Heps. stability assay, human cryopreserved hepatocytes; type: in vitro ADME; conditions: for microsomal CLint: read-out: Heps. stability assay Human Clint (μL/min/mg protein); for half-life: read-out: Heps. stability assay Human t1/2
Procedure: as §2

[11] = cited from earlier work; remark: listed apart in the source
[12] = human, oral 25 mg IR formulation; cited from earlier work
[13] = target: vesicular monoamine transporter-2 (VMAT2) (Homo sapiens, UniProt Q05940); conditions: read-out: IC50, inhibition of catecholamine uptake by VMAT2; cited from earlier work
[14] = tested on: VMAT1, other receptors (e.g., dopamine D2 receptors), transporters, and ion channels; conditions: in vitro; cited from earlier work
[15] = pH 1.2, PBS buffer, read-out: Kinetic Solubility pH = 1.2 (300 μM)
[16] = pH 7.4, PBS buffer, read-out: Kinetic Solubility pH = 7.4 (300 μM)

Chain of vesicular monoamine transporter-2 (VMAT2) (Q05940 whole entry, species assumed): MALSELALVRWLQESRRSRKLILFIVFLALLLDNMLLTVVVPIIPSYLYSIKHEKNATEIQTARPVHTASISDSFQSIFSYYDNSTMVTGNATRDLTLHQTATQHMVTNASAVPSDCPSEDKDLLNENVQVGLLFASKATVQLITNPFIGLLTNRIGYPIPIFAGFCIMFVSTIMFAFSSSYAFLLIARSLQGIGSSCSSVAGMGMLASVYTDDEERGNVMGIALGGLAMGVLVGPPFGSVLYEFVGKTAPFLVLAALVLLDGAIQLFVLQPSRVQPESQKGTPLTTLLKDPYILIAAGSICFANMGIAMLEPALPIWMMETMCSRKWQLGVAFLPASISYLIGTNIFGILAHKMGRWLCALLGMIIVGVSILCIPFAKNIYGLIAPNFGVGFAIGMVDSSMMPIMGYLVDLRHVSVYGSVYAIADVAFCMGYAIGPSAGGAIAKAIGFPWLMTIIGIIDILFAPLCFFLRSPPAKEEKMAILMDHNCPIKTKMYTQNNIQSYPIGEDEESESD

COc1cc2c(cc1OC)[C@H]1C[C@@H](O)[C@H](CC(C)C)CN1CC2 [(+)-α-DHTBZ, 2R,3R,11bR-dihydrotetrabenazine]
Cmax (time) of (+)-α-DHTBZ formed from Valbenazine ([1]; after Valbenazine, hydrolysis of the valine ester): 4 to 8 h | Tmax of (+)-α-DHTBZ after the administration of Valbenazine ([1]; after administration of Valbenazine): 4 to 8 h | off-target affinity [2]: no off-target affinity

[2H]C([2H])([2H])Oc1cc2c(cc1OC([2H])([2H])[2H])C1CC(=O)C(CC(C)C)CN1CC2 (centres unmarked) [Austedo®]
median Tmax [3]: 3 to 4 h

COc1cc2c(cc1OC)[C@H]1C[C@@H](OC(=O)CCC(=O)O)[C@H](CC(C)C)CN1CC2 [Example 2, 4-[[(2R,3R,11bR)-9,10-dimethoxy-3-(2-methylpropyl)-1H,2H,3H,4H,6H,7H,11bH-pyrido[2,1-a]isoquinolin-2-yl]oxy]-4-oxobutanoic acid]
microsomal CLint [4]: < 0.79 µL/min/mg | half-life [4]: > 14.7 h | Human PS t1/2 (min) [5]: ∞ | LM stability assay Human t1/2 (min) [6]: ∞ | Heps. stability assay Human t1/2 (min) [7]: ∞ | solubility kinetic at 2 h [8, 15]: 281 µM (≈ 118 µg/mL) | solubility kinetic at 2 h [8, 16]: 295 µM (≈ 124 µg/mL) | efflux ratio [9]: 2.54 | Papp A→B [9]: 8.67 ×10⁻⁶ cm/s | Papp B→A [9]: 22 ×10⁻⁶ cm/s

COc1cc2c(cc1OC)[C@H]1C[C@@H](OC(=O)c3cncc(C(=O)O)c3)[C@H](CC(C)C)CN1CC2 [Example 6, 5-([[(2R,3R,11bR)-9,10-dimethoxy-3-(2-methylpropyl)-1H,2H,3H,4H,6H,7H,11bH-pyrido[2,1-a]isoquinolin-2-yl]oxy]carbonyl)pyridine-3-carboxylic acid]
microsomal CLint [4]: < 0.35 µL/min/mg | half-life [4]: > 32.9 h | half-life [5]: > 44.7 h | microsomal CLint [6]: 1.67 µL/min/mg | half-life [6]: 13.4 h | Heps. stability assay Human t1/2 (min) [7]: ∞ | solubility kinetic at 2 h [8, 15]: 276 µM (≈ 130 µg/mL) | solubility kinetic at 2 h [8, 16]: 294 µM (≈ 138 µg/mL) | efflux ratio [9]: 25.1 | Papp A→B [9]: 0.68 ×10⁻⁶ cm/s | Papp B→A [9]: 17.1 ×10⁻⁶ cm/s

COc1cc2c(cc1OC)[C@H]1C[C@@H](OC(=O)/C=C/C(=O)N[C@@H](Cc3ccccc3)C(=O)O)[C@H](CC(C)C)CN1CC2 [Example 12, (2S)-2-[(2E)-4-[[(2R,3R,11bR)-9,10-dimethoxy-3-(2-methylpropyl)-1H,2H,3H,4H,6H,7H,11bH-pyrido[2,1-a]isoquinolin-2-yl]oxy]-4-oxobut-2-enamido]-3-phenylpropanoic acid]
microsomal CLint [4]: 1.42 µL/min/mg | half-life [4]: 11.5 h | half-life [5]: 0.238 h | microsomal CLint [6]: 2.38 µL/min/mg | half-life [6]: 8.91 h | microsomal CLint [10]: 6.27 µL/min/mg | half-life [10]: 3.69 h | solubility kinetic at 2 h [8, 15]: 320 µM (≈ 181 µg/mL) | solubility kinetic at 2 h [8, 16]: 306 µM (≈ 173 µg/mL) | efflux ratio [9]: 85.4 | Papp A→B [9]: 0.13 ×10⁻⁶ cm/s | Papp B→A [9]: 11.3 ×10⁻⁶ cm/s

COc1cc2c(cc1OC)[C@H]1C[C@@H](OC(=O)/C=C\C(=O)N[C@H](C(=O)O)C(C)C)[C@H](CC(C)C)CN1CC2 [Example 13, (2S)-2-[(2Z)-4-[[(2R,3R,11bR)-9,10-dimethoxy-3-(2-methylpropyl)-1H,2H,3H,4H,6H,7H,11bH-pyrido[2,1-a]isoquinolin-2-yl]oxy]-4-oxobut-2-enamido]-3-methylbutanoic acid]
microsomal CLint [4]: 2.17 µL/min/mg | half-life [4]: 5.76 h | half-life [5]: 2.38 h | microsomal CLint [6]: 0.35 µL/min/mg | half-life [6]: 51.1 h | microsomal CLint [10]: 4.75 µL/min/mg | half-life [10]: 4.89 h | solubility kinetic at 2 h [8, 15]: 303 µM (≈ 156 µg/mL) | solubility kinetic at 2 h [8, 16]: 300 µM (≈ 155 µg/mL) | efflux ratio [9]: > 402 | Papp A→B [9]: < 0.01 ×10⁻⁶ cm/s | Papp B→A [9]: 4.02 ×10⁻⁶ cm/s

COc1cc2c(cc1OC)[C@H]1C[C@@H](OC(=O)c3cncc(C(=O)O[C@@H]4C[C@@H]5c6cc(OC)c(OC)cc6CCN5C[C@H]4CC(C)C)c3)[C@H](CC(C)C)CN1CC2 [Example 15, 3,5-bis[(2R,3R,11bR)-9,10-dimethoxy-3-(2-methylpropyl)-1H,2H,3H,4H,6H,7H,11bH-pyrido[2,1-a]isoquinolin-2-yl] pyridine-3,5-dicarboxylate]
microsomal CLint [4]: < 0.08 µL/min/mg | half-life [4]: > 143 h | half-life [5]: > 53.7 h | LM stability assay Human t1/2 (min) [6]: ∞ | microsomal CLint [10]: 16.6 µL/min/mg | half-life [10]: 1.39 h | solubility kinetic at 2 h [8, 15]: 317 µM (≈ 244 µg/mL) | solubility kinetic at 2 h [8, 16]: 0.06 µM (≈ 0.0462 µg/mL) | Papp A→B [9]: < 0.01 ×10⁻⁶ cm/s | Papp B→A [9]: < 0.01 ×10⁻⁶ cm/s

COc1cc2c(cc1OC)[C@H]1C[C@@H](OC(=O)CCCCCCC(=O)O[C@@H]3C[C@@H]4c5cc(OC)c(OC)cc5CCN4C[C@H]3CC(C)C)[C@H](CC(C)C)CN1CC2 [Example 16, bis[(2R,3R,11bR)-9,10-dimethoxy-3-(2-methylpropyl)-1H,2H,3H,4H,6H,7H,11bH-pyrido[2,1-a]isoquinolin-2-yl] octanedioate]
microsomal CLint [4]: < 1.25 µL/min/mg | half-life [4]: > 9.21 h | Human PS t1/2 (min) [5]: ∞ | microsomal CLint [6]: 150 µL/min/mg | half-life [6]: 0.0775 h | microsomal CLint [10]: 22.6 µL/min/mg | half-life [10]: 1.03 h | solubility kinetic at 2 h [8, 15]: 141 µM (≈ 110 µg/mL) | solubility kinetic at 2 h [8, 16]: 0.042 µM (≈ 0.0326 µg/mL) | Papp A→B [9]: < 0.02 ×10⁻⁶ cm/s | Papp B→A [9]: < 0.01 ×10⁻⁶ cm/s

COc1cc2c(cc1OC)[C@H]1C[C@@H](OC(=O)CCC(=O)O[C@@H]3C[C@@H]4c5cc(OC)c(OC)cc5CCN4C[C@H]3CC(C)C)[C@H](CC(C)C)CN1CC2 [Example 17]
microsomal CLint [4]: 1.59 µL/min/mg | half-life [4]: 7.6 h | half-life [5]: 36.9 h | microsomal CLint [6]: 71.5 µL/min/mg | half-life [6]: 0.162 h | microsomal CLint [10]: 16.9 µL/min/mg | half-life [10]: 1.37 h | solubility kinetic at 2 h [8, 15]: 308 µM (≈ 222 µg/mL) | solubility kinetic at 2 h [8, 16]: 0.0019 µM (≈ 0.00137 µg/mL) | efflux ratio [9]: > 1.93 | Papp A→B [9]: < 0.02 ×10⁻⁶ cm/s | Papp B→A [9]: 0.0333 ×10⁻⁶ cm/s

COc1cc2c(cc1OC)[C@H]1C[C@@H](OC(=O)NCC(C)C)[C@H](CC(C)C)CN1CC2 [Example 23, (2R,3R,11bR)-9,10-dimethoxy-3-(2-methylpropyl)-1H,2H,3H,4H,6H,7H,11bH-pyrido[2,1-a]isoquinolin-2-yl N-(2-methylpropyl)carbamate]
microsomal CLint [4]: < 3.95 µL/min/mg | half-life [4]: > 2.92 h | half-life [5]: 438 h | microsomal CLint [6]: 208 µL/min/mg | half-life [6]: 0.0557 h | microsomal CLint [10]: 35.6 µL/min/mg | half-life [10]: 0.649 h | solubility kinetic at 2 h [8, 15]: 312 µM (≈ 131 µg/mL) | solubility kinetic at 2 h [8, 16]: 91.2 µM (≈ 38.2 µg/mL) | efflux ratio [9]: 0.67 | Papp A→B [9]: 14.2 ×10⁻⁶ cm/s | Papp B→A [9]: 9.54 ×10⁻⁶ cm/s

COc1cc2c(cc1OC)C1CC(=O)C(CC(C)C)CN1CC2 (centres unmarked) [TBZ, 3-isobutyl-9,10-dimethoxy-1,3,4,6,7,11b-hexahydro-2H-pyrido[2,1-a]isoquinolin-2-one]
solubility in acidic environments ([11]; pH<2): 8500 µg/mL (≈ 26.8 mM) | solubility in neutral environments ([11]; pH>4): 30 µg/mL (≈ 0.0945 mM) | Mean Tmax [12]: approximately 1 hour | mean t1/2 [12]: approximately 2 hours | Tmax [3]: 1 h | IC50 [13]: 3.2 nM

COc1cc2c(cc1OC)[C@H]1C[C@@H](OC(=O)[C@@H](N)C(C)C)[C@H](CC(C)C)CN1CC2 [Valbenazine, (2R,3R,11bR)-9,10-dimethoxy-3-(2-methylpropyl)-1,3,4,6,7,11b-hexahydro-2H-benzo[a]quinolizin-2-yl L-valinate]
oral bioavailability ([1]; in vivo, po): 49% | Tmax ([1]; in vivo): 0.5 to 1 h | excreted in feces ([1]; in vivo): 30% | excreted in urine ([1]; in vivo): Approximately 60% | parent compound or active metabolite excreted unchanged ([1]; in vivo): Less than 2% | t1/2 ([1]; in vivo): 15 to 22 h | affinity for VMAT1, other receptors, transporters, and ion channels [14]: little or no affinity
